In ChEMBL document CHEMBL1909046, “DrugMatrix in vitro pharmacology data”:

Tests used:
Carbonic anhydrase 2 = Carbonic anhydrase 2 (Homo sapiens, UniProt P00918); assay: DRUGMATRIX: Carbonic Anhydrase II enzyme inhibition (substrate: 4-Nitrophenyl acetate (4-NPA)); format: tissue-based, Erythrocyte; conditions: Not Active = under 50% inhibition at 10 µM
[1] = target: T1, C-C chemokine receptor type 4 (Homo sapiens, UniProt P51679); format: cell membranes, Membrane; conditions: chem-1; further: in other assays of this panel Not Active means under 50% inhibition at 10 µM
T1 sequence (P51679 whole entry): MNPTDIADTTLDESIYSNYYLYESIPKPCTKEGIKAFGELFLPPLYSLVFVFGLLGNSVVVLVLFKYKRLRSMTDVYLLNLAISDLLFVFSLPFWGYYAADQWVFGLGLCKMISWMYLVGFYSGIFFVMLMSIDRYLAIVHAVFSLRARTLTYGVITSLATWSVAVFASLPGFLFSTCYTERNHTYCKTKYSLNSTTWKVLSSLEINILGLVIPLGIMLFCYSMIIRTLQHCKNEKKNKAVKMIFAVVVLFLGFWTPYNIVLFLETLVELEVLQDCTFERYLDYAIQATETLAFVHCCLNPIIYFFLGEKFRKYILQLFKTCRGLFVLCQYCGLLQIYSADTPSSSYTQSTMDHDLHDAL

Glycine receptor = Glycine receptor (Rattus norvegicus, UniProt P22771+P24524+P07727+P20781); format: cell membranes, Wistar, Spinal cord, Membrane; further: in other assays of this panel Not Active means under 50% inhibition at 10 µM
[2] = target: T2, Muscarinic acetylcholine receptor M5 (Homo sapiens, UniProt P08912); format: cell membranes, Membrane; conditions: cho-k1; further: in other assays of this panel Not Active means under 50% inhibition at 10 µM
T2 sequence (P08912 whole entry): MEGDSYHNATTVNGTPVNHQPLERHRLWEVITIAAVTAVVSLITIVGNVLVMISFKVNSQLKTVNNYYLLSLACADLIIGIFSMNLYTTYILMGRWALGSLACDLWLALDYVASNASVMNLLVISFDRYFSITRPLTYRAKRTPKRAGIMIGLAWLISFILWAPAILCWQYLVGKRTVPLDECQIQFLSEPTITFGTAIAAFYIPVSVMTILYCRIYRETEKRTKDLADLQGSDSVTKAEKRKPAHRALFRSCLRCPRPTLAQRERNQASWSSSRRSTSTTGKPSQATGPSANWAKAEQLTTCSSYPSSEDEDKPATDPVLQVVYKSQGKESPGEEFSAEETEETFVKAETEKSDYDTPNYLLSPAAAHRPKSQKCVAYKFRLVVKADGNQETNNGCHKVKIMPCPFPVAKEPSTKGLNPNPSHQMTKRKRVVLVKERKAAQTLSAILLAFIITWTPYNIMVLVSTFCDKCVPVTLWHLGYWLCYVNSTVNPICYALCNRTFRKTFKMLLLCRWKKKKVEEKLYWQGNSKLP

[3] = target: Mitogen-activated protein kinase 3 (Homo sapiens, UniProt P27361); assay: DRUGMATRIX: Protein Serine/Threonine Kinase, ERK1 enzyme inhibition (substrate: Myelin Basic Protein); design: species or system Escherichia coli; conditions: Not Active = under 50% inhibition at 10 µM
Adenosine receptor A1 = target: T3, Adenosine receptor A1 (Homo sapiens, UniProt P30542); format: cell membranes, CHO, Membrane;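 further: radioligand binding assay at the adenosine A1 receptor, with DPCPX serving as the labelled ligand; in other assays of this panel Not Active means under 50% inhibition at 10 µM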
T3 sequence (P30542 whole entry): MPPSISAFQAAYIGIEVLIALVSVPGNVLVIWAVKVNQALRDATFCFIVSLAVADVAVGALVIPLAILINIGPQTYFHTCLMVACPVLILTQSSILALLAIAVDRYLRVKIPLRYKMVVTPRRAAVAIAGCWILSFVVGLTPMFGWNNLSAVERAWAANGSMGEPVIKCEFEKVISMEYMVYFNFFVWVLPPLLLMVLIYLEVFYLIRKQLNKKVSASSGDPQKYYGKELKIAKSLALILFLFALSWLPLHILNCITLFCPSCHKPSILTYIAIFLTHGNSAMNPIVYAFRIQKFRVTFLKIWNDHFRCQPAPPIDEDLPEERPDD

Cytochrome P450 2D6 = Cytochrome P450 2D6 (Homo sapiens, UniProt P10635); conditions: bti-tn-5b1-4; further: in other assays of this panel Not Active means under 50% inhibition at 10 µM
Cytochrome P450 3A4 = Cytochrome P450 3A4 (Homo sapiens, UniProt P08684); conditions: bti-tn-5b1-4; further: in other assays of this panel Not Active means under 50% inhibition at 10 µM
Sequence of Cytochrome P450 3A4 (P08684 whole entry): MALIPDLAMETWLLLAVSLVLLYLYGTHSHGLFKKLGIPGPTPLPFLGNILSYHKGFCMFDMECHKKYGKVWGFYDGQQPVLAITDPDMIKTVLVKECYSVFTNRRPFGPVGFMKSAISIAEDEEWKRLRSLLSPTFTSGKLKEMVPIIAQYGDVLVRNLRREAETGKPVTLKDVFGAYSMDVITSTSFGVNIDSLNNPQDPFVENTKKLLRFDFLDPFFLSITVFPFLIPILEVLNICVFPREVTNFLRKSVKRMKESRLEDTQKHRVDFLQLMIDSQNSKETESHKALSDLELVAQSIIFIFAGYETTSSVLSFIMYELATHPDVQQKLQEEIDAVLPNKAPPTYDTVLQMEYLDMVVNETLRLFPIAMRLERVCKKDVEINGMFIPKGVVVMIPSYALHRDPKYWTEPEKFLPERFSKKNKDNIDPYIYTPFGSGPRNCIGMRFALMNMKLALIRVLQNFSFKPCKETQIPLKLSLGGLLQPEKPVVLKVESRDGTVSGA

Sequence of Cytochrome P450 2D6 (P10635 whole entry): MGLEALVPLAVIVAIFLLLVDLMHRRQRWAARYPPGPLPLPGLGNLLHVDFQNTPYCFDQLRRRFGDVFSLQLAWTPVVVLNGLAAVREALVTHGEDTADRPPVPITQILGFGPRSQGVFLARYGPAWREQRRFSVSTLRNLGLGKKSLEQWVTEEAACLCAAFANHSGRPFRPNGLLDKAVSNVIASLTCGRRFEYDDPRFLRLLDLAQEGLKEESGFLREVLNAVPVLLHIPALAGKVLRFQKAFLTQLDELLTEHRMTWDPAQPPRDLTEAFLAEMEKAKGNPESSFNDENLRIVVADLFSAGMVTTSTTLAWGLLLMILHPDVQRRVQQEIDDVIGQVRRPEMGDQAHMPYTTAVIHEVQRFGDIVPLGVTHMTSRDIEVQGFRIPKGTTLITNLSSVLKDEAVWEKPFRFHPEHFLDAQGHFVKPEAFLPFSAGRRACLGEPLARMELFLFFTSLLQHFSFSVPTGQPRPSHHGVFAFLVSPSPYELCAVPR
Sequence of Mitogen-activated protein kinase 3 (P27361 whole entry): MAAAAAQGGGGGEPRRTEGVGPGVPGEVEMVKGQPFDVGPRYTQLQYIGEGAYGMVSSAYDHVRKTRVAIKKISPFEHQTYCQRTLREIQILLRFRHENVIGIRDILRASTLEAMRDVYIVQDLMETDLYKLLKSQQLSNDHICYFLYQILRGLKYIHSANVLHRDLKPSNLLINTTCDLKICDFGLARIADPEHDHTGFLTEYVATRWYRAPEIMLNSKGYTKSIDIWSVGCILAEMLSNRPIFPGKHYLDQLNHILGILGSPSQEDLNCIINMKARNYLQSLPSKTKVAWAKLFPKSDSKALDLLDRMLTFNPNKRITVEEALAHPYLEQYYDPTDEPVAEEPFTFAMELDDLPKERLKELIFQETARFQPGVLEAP

Compound | IC50 (Carbonic anhydrase 2; erythrocyte) | IC50 [1] | IC50 (Glycine receptor) | IC50 [2] | IC50 [3] | IC50 (Adenosine receptor A1; cho) | IC50 (Cytochrome P450 2D6) | Ki (Cytochrome P450 2D6) | IC50 (Cytochrome P450 3A4) | Ki (Cytochrome P450 3A4) | IC50 (Adenosine receptor A1; read-out: IC50) | Ki (Adenosine receptor A1; read-out: Ki) | Ki (Carbonic anhydrase 2; erythrocyte) | Ki [1] | Ki (Glycine receptor) | Ki [2] | IC50 ([3]; read-out: IC50) | Ki (Adenosine receptor A1; cho) | IC50 (Carbonic anhydrase 2; read-out: IC50)
CCS(=O)(=O)CCn1c([N+](=O)[O-])cnc1C [TINIDAZOLE] | Not Active | Not Active | Not Active | Not Active | Not Active | Not Active |  |  |  |  |  |  |  |  |  |  |  |  | 
Nc1nc2c(c(=O)[nH]1)N(C=O)C(CNc1ccc(C(=O)N[C@@H](CCC(=O)O)C(=O)O)cc1)CN2 (some centres undefined) [LEUCOVORIN] | Not Active | Not Active | Not Active | Not Active |  | Not Active | Not Active | Not Active | Not Active | Not Active |  |  |  |  |  |  |  |  | 
CC(=O)O[C@H]1C[C@@H]2CC[C@@H]3[C@H](CC[C@@]4(C)[C@H]3C[C@H]([N+]3(C)CCCCC3)[C@@H]4OC(C)=O)[C@@]2(C)C[C@@H]1N1CCCCC1.[Br-] [VECURONIUM BROMIDE] | Not Active | Not Active | Not Active | Not Active | Not Active | Not Active | Not Active | Not Active | Not Active | Not Active |  |  |  |  |  |  |  |  | 
C[C@@H](O)[C@H]1C(=O)N2C(C(=O)O)=C(S[C@@H]3CN[C@H](C(=O)N(C)C)C3)[C@H](C)[C@H]12 [MEROPENEM] | Not Active | Not Active | Not Active | Not Active | Not Active | Not Active | Not Active | Not Active | Not Active | Not Active |  |  |  |  |  |  |  |  | 
Cc1cn([C@H]2C[C@H](N=[N+]=[N-])[C@@H](CO)O2)c(=O)[nH]c1=O [ZIDOVUDINE] | Not Active | Not Active | Not Active | Not Active | Not Active | Not Active | Not Active | Not Active | Not Active | Not Active |  |  |  |  |  |  |  |  | 
COc1cc(N)nc2[nH]c(-c3ccc(F)cc3)c(-c3ccncc3)c12 | Not Active | Not Active | Not Active | Not Active | Not Active |  |  |  |  |  | 0.887 µM | 0.518 µM |  |  |  |  |  |  | 
CN1C2CCCC1CC(NC(=O)c1nn(C)c3ccccc13)C2 (centres undefined) [GRANISETRON] | Not Active | Not Active | Not Active | Not Active | Not Active | Not Active |  |  | Not Active | Not Active |  |  |  |  |  |  |  |  | 
THIMEROSAL | Not Active | Not Active | Not Active | Not Active |  | Not Active | 3 µM |  | Not Active | Not Active |  |  | Not Active | Not Active | Not Active | Not Active | 0.774 µM | Not Active | 
C[C@]12CC[C@H]3[C@@H](CCC4=CC(=O)CC[C@@]43C)[C@@H]1CC[C@@H]2O [TESTOSTERONE] | Not Active | Not Active | Not Active | Not Active | Not Active | Not Active | Not Active | Not Active | Not Active | Not Active |  |  |  |  |  |  |  |  | 
CNS(=O)(=O)Cc1ccc2[nH]cc(CCN(C)C)c2c1 | Not Active | Not Active | Not Active | Not Active | Not Active | Not Active | Not Active | Not Active | Not Active | Not Active |  |  |  |  |  |  |  |  | 
CO[C@H]1C[C@@H]2CC[C@@H](C)[C@@](O)(O2)C(=O)C(=O)N2CCCC[C@H]2C(=O)O[C@H]([C@H](C)C[C@@H]2CC[C@@H](O)[C@H](OC)C2)CC(=O)[C@H](C)/C=C(\C)[C@@H](O)[C@@H](OC)C(=O)[C@H](C)C[C@H](C)/C=C/C=C/C=C/1C [SIROLIMUS] | Not Active | Not Active | Not Active | Not Active | Not Active | Not Active | Not Active | Not Active |  |  |  |  |  |  |  |  |  |  | 
CC(C)OC(=O)C(C)(C)Oc1ccc(C(=O)c2ccc(Cl)cc2)cc1 [FENOFIBRATE] | Not Active | Not Active | Not Active | Not Active | Not Active | Not Active |  |  | Not Active | Not Active |  |  |  |  |  |  |  |  | 
CN(CCOc1ccc(CC2SC(=O)NC2=O)cc1)c1ccccn1 (centres undefined) [ROSIGLITAZONE] |  | Not Active | Not Active | Not Active | Not Active | Not Active |  |  |  |  |  |  |  |  |  |  |  |  | 4.07 µM
C=C(C)[C@H]1Cc2c(ccc3c2O[C@@H]2COc4cc(OC)c(OC)cc4[C@@H]2C3=O)O1 [ROTENONE] | Not Active | Not Active | Not Active | Not Active | Not Active | Not Active | Not Active | Not Active | Not Active | Not Active |  |  |  |  |  |  |  |  | 
Nc1ccc(S(=O)(=O)Nc2nccs2)cc1 [SULFATHIAZOLE] | Not Active | Not Active | Not Active | Not Active | Not Active | Not Active | Not Active | Not Active | Not Active | Not Active |  |  |  |  |  |  |  |  | 
OCCN1CCN(CCCN2c3ccccc3Sc3ccc(C(F)(F)F)cc32)CC1 [FLUPHENAZINE] | Not Active | Not Active | Not Active | Not Active | Not Active | Not Active |  |  |  |  |  |  |  |  |  |  |  |  | 
COc1ccc(CN2CCNCC2)c(OC)c1OC [TRIMETAZIDINE] | Not Active | Not Active | Not Active | Not Active | Not Active | Not Active |  |  |  |  |  |  |  |  |  |  |  |  | 
CC[C@@H](CO)NC(=O)[C@@H]1C=C2c3cccc4c3c(cn4C)C[C@H]2N(C)C1 [METHYSERGIDE] | Not Active | Not Active | Not Active | Not Active | Not Active | Not Active | Not Active | Not Active | Not Active | Not Active |  |  |  |  |  |  |  |  | 
COc1cc(C(=O)NS(=O)(=O)c2ccccc2C)ccc1Cc1cn(C)c2ccc(NC(=O)OC3CCCC3)cc12 [ZAFIRLUKAST] | Not Active | Not Active | Not Active | Not Active |  | Not Active | Not Active | Not Active | Not Active | Not Active |  |  |  |  |  |  | 4.38 µM |  | 
CC(=O)Nc1nnc(S(N)(=O)=O)s1 [ACETAZOLAMIDE] |  | Not Active | Not Active | Not Active | Not Active | Not Active | Not Active | Not Active | Not Active | Not Active |  |  |  |  |  |  |  |  | 
CCN(CC)CC#CCOC(=O)C(O)(c1ccccc1)C1CCCCC1 (centres undefined) [OXYBUTYNIN] | Not Active | Not Active | Not Active |  | Not Active | Not Active | Not Active | Not Active | Not Active | Not Active |  |  |  |  |  |  |  |  | 
CC(C)(C)NC[C@H](O)COc1nsnc1N1CCOCC1 [TIMOLOL] | Not Active | Not Active | Not Active | Not Active | Not Active | Not Active | Not Active | Not Active |  |  |  |  |  |  |  |  |  |  | 
O=c1[nH]c2ccccc2n1CCCN1CCC(n2c(=O)[nH]c3cc(Cl)ccc32)CC1 [DOMPERIDONE] | Not Active | Not Active | Not Active | Not Active | Not Active | Not Active |  |  |  |  |  |  |  |  |  |  |  |  | 
Nc1ccc(S(=O)(=O)Nc2ncccn2)cc1 [SULFADIAZINE] |  | Not Active | Not Active | Not Active | Not Active | Not Active | Not Active | Not Active | Not Active | Not Active |  |  |  |  |  |  |  |  | 
